Key:
Format in all cases: in vivo, human patients
[1] = Adverse events (urinary frequency) in patients treated with (A); settings: for Urinary Frequency Event Rate (%): placebo 1.3%
Method: (§1) To patients of severe heart failure (i.e., patient in acute heart failure or chronic heart failure in acute exacerbation, New York Heart Association Class III and IV) was administered 5-hydroxy-7-chloro-1-[2-methyl-4-(2-methylbenzoylamino)benzoyl]-2,3,4,5-tetrahydro-1H-benzazepine at a dose of 30, 60 or 90 mg/day for a period of 60 days, which period began from the duration of hospitalization to after being discharged from hospital (details thereof are shown in Table 1).
(§2) In addition, in the group treated with the lowest dose of 30 mg, the urinary frequency event rate as an adverse experience was lower (Table 6), and the discontinued rate due to adverse experiences was lower (Table 7), as compared with the data of the groups treated with higher doses.

[2] = Total urine output in patients treated with (A), placebo-controlled Phase IIB study; set-up: Total urine output: unit not given here
Method: as §1
(§3) As to the statistical analysis, the data in Table 2 was analyzed by ANOVA method, and the data in Tables 3 and 4 were analyzed by ANCOVA method, and the data in Table 5 was analyzed by Log-Rank test.
(§4) When the dosages in this experiment were converted to a daily dose per 1 kg of body weight, they were 0.371±0.096 mg/kg (n=77) in the 30 mg-treated group, 0.769±0.205 mg/kg (n=83) in the 60 mg-treated group, and 1.149±0.283 mg/kg (n=76) in the 90 mg-treated group (all in mean±SD).

[3] = system: patients of severe heart failure; assay: Mortality of the patients treated with (A); settings: for Mortality Event Rate (%): placebo 8.7%; for Number off Death: on therapy up to 60 days
Method: as §1, §3

[4] = Mean change in body weight from baseline in patients treated with (A); set-up: Mean change in body weight from baseline: unit not given here
Method: as §1, §3, §4

[5] = Discontinued cases due to adverse experiences in patients treated with (A); settings: for Discontinuation due to Adverse Experience Event Rate (%): placebo 15.0%
Method: as §1, §2

[6] = Serum sodium concentration in patients of hyponatremia at baseline treated with (A); settings: for Serum sodium concentration: mean ± SD
Method: as §1
As to the statistical analysis, the data in Table 2 was analyzed by ANOVA method, and the data in Tables 3 and 4 were analyzed by ANCOVA method, and the data in Table 5 was analyzed by Log-Rank test. […]

[7] = 30 mg group compared with groups treated with higher doses
[8] = 30 mg/day oral, 78 patients randomized
[9] = 60 mg/day oral, 84 patients randomized
[10] = 90 mg/day oral, 77 patients randomized

## Cc1ccccc1C(=O)Nc1ccc(C(=O)N2CCCC(O)c3cc(Cl)ccc32)c(C)c1 (stereo not drawn) [(A), 5-hydroxy-7-chloro-1-[2-methyl-4-(2-methylbenzoylamino)benzoyl]-2,3,4,5-tetrahydro-1H-benzazepine]
[1]; [7]
  urinary frequency event rate as an adverse experience (in words): lower
[1]; 30 mg/day oral, 78 patients
  Adverse Event Urinary Frequency (number of patients): 1
  Urinary Frequency Event Rate (%): 1.3%
[1]; 60 mg/day oral, 84 patients
  Adverse Event Urinary Frequency (number of patients): 3
  Urinary Frequency Event Rate (%): 3.6%
[1]; 90 mg/day oral, 76 patients
  Adverse Event Urinary Frequency (number of patients): 4
  Urinary Frequency Event Rate (%): 5.3%
[2]; 30 mg-treated group
  total urine output (in words): increased
[2]; 30 mg/day oral, Day 1, mean ± SD, n=73
  Total urine output: 4056.16 ± 2310.23
[2]; 30 mg/day oral, Day 2, mean ± SD, n=67
  Total urine output: 3905.61 ± 1942.03
[2]; 30 mg/day oral, Day 3, mean ± SD, n=52
  Total urine output: 3579.04 ± 1867.86
[2]; 30 mg/day oral, Day 6, mean ± SD, n=33
  Total urine output: 3146.67 ± 1618.09
[2]; 30 mg/day oral, Day 7, mean ± SD, n=16
  Total urine output: 2662.81 ± 1507.51
[2]; 30 mg/day oral, Day 9, mean ± SD, n=5
  Total urine output: 2908.00 ± 475.59
[2]; 60 mg/day oral, Day 1, mean ± SD, n=82
  Total urine output: 4175.15 ± 2695.44
[2]; 60 mg/day oral, Day 2, mean ± SD, n=74
  Total urine output: 3699.26 ± 2094.02
[2]; 60 mg/day oral, Day 3, mean ± SD, n=54
  Total urine output: 3420.41 ± 1902.77
[2]; 60 mg/day oral, Day 6, mean ± SD, n=32
  Total urine output: 3684.56 ± 2472.45
[2]; 60 mg/day oral, Day 7, mean ± SD, n=17
  Total urine output: 4230.00 ± 1691.43
[2]; 60 mg/day oral, Day 9, mean ± SD, n=11
  Total urine output: 3753.18 ± 2415.48
[2]; 90 mg/day oral, Day 1, mean ± SD, n=73
  Total urine output: 4127.27 ± 2050.81
[2]; 90 mg/day oral, Day 2, mean ± SD, n=64
  Total urine output: 3961.73 ± 2129.11
[2]; 90 mg/day oral, Day 3, mean ± SD, n=50
  Total urine output: 4069.32 ± 2306.07
[2]; 90 mg/day oral, Day 6, mean ± SD, n=30
  Total urine output: 4188.23 ± 2275.15
[2]; 90 mg/day oral, Day 7, mean ± SD, n=17
  Total urine output: 3915.12 ± 2101.53
[2]; 90 mg/day oral, Day 9, mean ± SD, n=7
  Total urine output: 2421.43 ± 1391.12
[3]; 30 mg-treated group, entire period, Log-Rank test
  mortality rate vs control group (in words): significantly lower
[3]; [8]
  Mortality Event Rate (%): 3.8%
  Number off Death: 3
[3]; [9]
  Mortality Event Rate (%): 9.5%
  Number off Death: 8
[3]; [10]
  Mortality Event Rate (%): 2.5%
  Number off Death: 2
[4]; 30 mg-treated group
  body weight (in words): decreased
[4]; 30 mg/day oral, Day 1, mean ± SD, n=76
  Mean change in body weight from baseline: −2.14 ± 2.63
[4]; 30 mg/day oral, Day 2, mean ± SD, n=63
  Mean change in body weight from baseline: −3.49 ± 3.80
[4]; 30 mg/day oral, Day 3, mean ± SD, n=49
  Mean change in body weight from baseline: −4.78 ± 4.14
[4]; 30 mg/day oral, Discharge, mean ± SD, n=76
  Mean change in body weight from baseline: −4.37 ± 4.69
[4]; 30 mg/day oral, Last Visit, mean ± SD, n=76
  Mean change in body weight from baseline: −2.42 ± 5.37
[4]; 30 mg/day oral, outpatient Week 1, mean ± SD, n=65
  Mean change in body weight from baseline: −2.71 ± 4.93
[4]; 30 mg/day oral, outpatient Week 7, mean ± SD, n=54
  Mean change in body weight from baseline: −2.12 ± 5.16
[4]; 60 mg/day oral, Day 1, mean ± SD, n=76
  Mean change in body weight from baseline: −2.10 ± 1.80
[4]; 60 mg/day oral, Day 2, mean ± SD, n=65
  Mean change in body weight from baseline: −3.03 ± 2.48
[4]; 60 mg/day oral, Day 3, mean ± SD, n=47
  Mean change in body weight from baseline: −3.93 ± 3.33
[4]; 60 mg/day oral, Discharge, mean ± SD, n=82
  Mean change in body weight from baseline: −4.60 ± 4.67
[4]; 60 mg/day oral, Last Visit, mean ± SD, n=82
  Mean change in body weight from baseline: −3.60 ± 6.38
[4]; 60 mg/day oral, outpatient Week 1, mean ± SD, n=59
  Mean change in body weight from baseline: −2.73 ± 5.45
[4]; 60 mg/day oral, outpatient Week 7, mean ± SD, n=54
  Mean change in body weight from baseline: −2.87 ± 6.67
[4]; 90 mg/day oral, Day 1, mean ± SD, n=74
  Mean change in body weight from baseline: −1.90 ± 2.87
[4]; 90 mg/day oral, Day 2, mean ± SD, n=61
  Mean change in body weight from baseline: −2.84 ± 3.16
[4]; 90 mg/day oral, Day 3, mean ± SD, n=45
  Mean change in body weight from baseline: −2.65 ± 4.22
[4]; 90 mg/day oral, Discharge, mean ± SD, n=76
  Mean change in body weight from baseline: −3.75 ± 4.18
[4]; 90 mg/day oral, Last Visit, mean ± SD, n=76
  Mean change in body weight from baseline: −2.39 ± 5.20
[4]; 90 mg/day oral, outpatient Week 1, mean ± SD, n=53
  Mean change in body weight from baseline: −3.23 ± 4.46
[4]; 90 mg/day oral, outpatient Week 7, mean ± SD, n=53
  Mean change in body weight from baseline: −2.23 ± 5.19
[5]; [7]
  discontinued rate due to adverse experiences (in words): lower
[5]; [8]
  Discontinued cases due to Adverse Experience (number): 14
  Discontinuation due to Adverse Experience Event Rate (%): 17.9%
[5]; [9]
  Discontinued cases due to Adverse Experience (number): 25
  Discontinuation due to Adverse Experience Event Rate (%): 29.8%
[5]; [10]
  Discontinued cases due to Adverse Experience (number): 17
  Discontinuation due to Adverse Experience Event Rate (%): 22.1%
[6]; 30 mg group, Baseline, patients of hyponatremia at baseline, n=15
  Serum sodium concentration: 132.13 ± 3.44 mEq/L
[6]; 30 mg/day oral, Day 1, patients of hyponatremia at baseline, n=15
  Serum sodium concentration: 136.00 ± 3.96 mEq/L
[6]; 30 mg/day oral, Day 2, patients of hyponatremia at baseline, n=11
  Serum sodium concentration: 135.09 ± 5.07 mEq/L
[6]; 30 mg/day oral, Day 3, patients of hyponatremia at baseline, n=8
  Serum sodium concentration: 135.13 ± 5.38 mEq/L
[6]; 30 mg/day oral, Discharge, patients of hyponatremia at baseline, n=15
  Serum sodium concentration: 136.13 ± 4.61 mEq/L
[6]; 30 mg/day oral, Last Visit, patients of hyponatremia at baseline, n=15
  Serum sodium concentration: 137.00 ± 5.04 mEq/L
[6]; 30 mg/day oral, outpatient Week 1, patients of hyponatremia at baseline, n=12
  Serum sodium concentration: 138.25 ± 4.22 mEq/L
[6]; 30 mg/day oral, outpatient Week 7, patients of hyponatremia at baseline, n=10
  Serum sodium concentration: 137.60 ± 4.65 mEq/L
[6]; 60 mg group, Baseline, patients of hyponatremia at baseline, n=22
  Serum sodium concentration: 130.86 ± 4.00 mEq/L
[6]; 60 mg/day oral, Day 1, patients of hyponatremia at baseline, n=22
  Serum sodium concentration: 135.77 ± 6.16 mEq/L
[6]; 60 mg/day oral, Day 2, patients of hyponatremia at baseline, n=17
  Serum sodium concentration: 137.29 ± 3.02 mEq/L
[6]; 60 mg/day oral, Day 3, patients of hyponatremia at baseline, n=13
  Serum sodium concentration: 138.62 ± 4.44 mEq/L
[6]; 60 mg/day oral, Discharge, patients of hyponatremia at baseline, n=22
  Serum sodium concentration: 137.18 ± 4.56 mEq/L
[6]; 60 mg/day oral, Last Visit, patients of hyponatremia at baseline, n=22
  Serum sodium concentration: 136.18 ± 5.94 mEq/L
[6]; 60 mg/day oral, outpatient Week 1, patients of hyponatremia at baseline, n=16
  Serum sodium concentration: 136.88 ± 5.82 mEq/L
[6]; 60 mg/day oral, outpatient Week 7, patients of hyponatremia at baseline, n=11
  Serum sodium concentration: 139.36 ± 4.76 mEq/L
[6]; 90 mg group, Baseline, patients of hyponatremia at baseline, n=15
  Serum sodium concentration: 133.07 ± 2.52 mEq/L
[6]; 90 mg/day oral, Day 1, patients of hyponatremia at baseline, n=15
  Serum sodium concentration: 137.13 ± 4.82 mEq/L
[6]; 90 mg/day oral, Day 2, patients of hyponatremia at baseline, n=15
  Serum sodium concentration: 137.00 ± 4.60 mEq/L
[6]; 90 mg/day oral, Day 3, patients of hyponatremia at baseline, n=11
  Serum sodium concentration: 136.45 ± 4.59 mEq/L
[6]; 90 mg/day oral, Discharge, patients of hyponatremia at baseline, n=15
  Serum sodium concentration: 137.13 ± 3.02 mEq/L
[6]; 90 mg/day oral, Last Visit, patients of hyponatremia at baseline, n=15
  Serum sodium concentration: 136.60 ± 5.17 mEq/L
[6]; 90 mg/day oral, outpatient Week 1, patients of hyponatremia at baseline, n=8
  Serum sodium concentration: 136.13 ± 3.64 mEq/L
[6]; 90 mg/day oral, outpatient Week 7, patients of hyponatremia at baseline, n=6
  Serum sodium concentration: 138.00 ± 5.73 mEq/L
[6]; patients of hyponatremia at baseline (less than 136 mEq/L)
  serum sodium concentration (in words): increase of serum sodium concentration
